Where a name gives a salt, the structure may show the parent alone.
Assays:
[1] = tested on: Polyclonal rabbit IgG (rIgG); assay: Native fluorescence assay of rabbit IgG denaturation (ex 280 nm, emission ratio 376/360 nm); type: biochemical; settings: for denaturing power (in words): 5 mM concentration and lower temperatures
Experimental: To determine the effectiveness of the guanidine and amidine reagents from the table of FIG. 8, a native fluorescence assay was established using rabbit IgG. Upon excitation at 280 nm, emission was measured ratiometrically at two wavelengths 376 and 360 nm.
Fluorescence spectra were acquired at an excitation wavelength of 280 nm and emission intensity is reported as a ratio of 376 nm intensity divided by 360 nm intensity. An increase in 1376/1360 denotes a change in the microenvironment of tryptophan residues—specifically, their change from a hydrophobically surrounded native state to a solvent exposed denatured state.
The IgG sample was subjected to concentrations of 0.5, 5, and 50 mM and temperatures of either ambient, 50° C., 70° C., or 90° C. […] Fluorescence was performed with an excitation wavelength of 280 nm.
Polyclonal rabbit IgG (rIgG) was used as a test protein to evaluate the denaturation power of various reagents. The rIgG protein was dissolved and diluted to a concentration of 0.25 mg/mL with water, while also being subjected to the chemical compound of interest and an incubation at either room temperature, 50° C., 70° C., or 90° C. To generate a positive control for complete denaturation, the rIgG sample was subjected to room temperature incubations with guanidine hydrochloride at 0 and up to 8M concentrations. Native fluorescence of the resulting sample was thereafter measured using an excitation wavelength of 280 nm. Emission intensities at 376 and 360 nm were subsequently detected and reported as a ratio as a sensitive measure of rIgG denaturation and a change in the local environment of tryptophan residues.
Fluorescence intensity ratios obtained after incubation with reagent #1, reagent #2, and reagent #3 and either ambient, 50° C., 70° C., or 90° C. temperatures are provided in FIG. 3. Likewise, fluorescence intensity ratios obtained after incubation with reagent #4, reagent #5, and reagent #6 and either ambient, 50° C., 70° C., or 90° C. temperatures are provided in FIG. 4. In all experiments, the substituted guanidine and amidines were titrated to a neutral pH and their protonated ionization states prior to being incubated with protein sample.

[2] = target: T1, Orencia® (abatacept) (Homo sapiens, UniProt P16410, C103S); assay: N-glycan release and RapiFluor-MS labeling after denaturation, LC-FLR-MS profile; settings: 5 mM tetramethylguanidine denatured Orencia®, no desalting
T1 construct: modified human IgG1 Fc (hinge-CH2-CH3) fusion partner; purchased Bristol-Myers Squibb
Experimental: In the example of FIG. 6, abatacept was denatured with 5 mM tetramethylguanidine at a 90° C. and incubated at 50° C. with PNGase F. The resulting N-glycosylamines were there derivatized with RapiFluor-MS™ and cleaned up with solid phase extraction using a GlycoWorks RapiFluor-MS™ N-glycan kit (according to manufacturer recommendations; Waters Technologies Corporation, Milford, Mass.). RapiFluor-MS™ labeled N-glycans from this tetramethylguanidinium denatured sample were thereafter profiled by […].
Thirty (30) μL of deglycosylated protein was labeled with 12 μL of RapiFluor-MS™ solution (68.7 mg/mL in DMF) for 5 minutes at room temperature, followed by dilution with 358 μL of acetonitrile for SPE clean-up. The total of 400 μL mixed solution was transferred to a pre-conditioned HILIC μElution SPE plate staged for operation on a positive pressure manifold with 3 psi pressurization. Each sample was loaded onto the plate and then twice washed with 600 μL of 1:9:90 (v/v/v) formic acid/water/acetonitrile. Finally, released glycans were eluted from individual wells with three, 30 μL of 200 mM ammonium acetate in 5% acetonitrile. Eluate was collected and transferred in LC vials for analysis. LC-FLR-MS settings and parameters used in these experiments are listed below in Table 2.

[3] = target: T2, Orencia® (abatacept), a glycosylated fusion protein (Homo sapiens, UniProt P16410, C103S); assay: Denaturation then PNGase F deglycosylation of abatacept, intact protein RPLC-MS; type: biochemical; settings: 5 mM reagent, short 90° C. incubation, no desalting, PNGase F at 50° C.
T2 construct: modified human IgG1 Fc (hinge-CH2-CH3) fusion partner; purchased Bristol-Myers Squibb
Experimental: An Orencia® stock solution (20 mg/mL) was diluted 10 times with water to a concentration of 2 mg/mL, followed by the addition of 10 μL diluted sample into three 1 mL polypropylene tubes. Four (4) μL of 50 mM guanidino reagents, tetramethylguanidine (reagent #1), t-butyl tetramethylguanidine (reagent #2), and trazabicyclodecene (reagent #3), were added into each tube, separately. Finally, 8 μL of 50 mM HEPES, pH 7.9 buffer was transferred into each tube along with 16.4 μL of water.
The contents of each well were subsequently mixed by aspiration. Each sample was then incubated at 90° C., 3 minutes for denaturation and then removed from the heating block to cool at room temperature for 3 minutes. Each denatured glycoprotein sample was treated with 1.6 μL of GlycoWorks Rapid PNGase F at 50° C. for 5 minutes. Aliquots containing 10 μL of each deglycosylated sample were submitted for intact protein analysis, while the remaining 30 μL samples were subjected to RapiFluor-MS™ labeling and released glycan analysis (see details in Example 3).
Additionally, two controls were applied. For a positive control (FIG. 5D), 5 μL of Orencia® stock solution was mixed with 45 μL of 8M guanidine hydrochloride at room temperature, followed by desalting with a Thermo Zeba spin column. The resulting, 10 μL desalted sample was mixed with 8 μL of 50 mM HEPES, pH 7.9, 20.4 μL of water and 1.6 μL of GlycoWorks Rapid PNGase F before being incubated at 50° C. for 5 min to perform deglycosylation. Ten (10) μL of this deglycosylated protein, as well as 10 μL of 2 mg/mL Orencia® solution without denaturation, were tested as positive and negative controls of intact protein analysis. LCMS settings and parameters used for intact protein analysis are listed below in Table 1.

T2 sequence (P16410 with tags, fused parts or gaps limits assumed, stated change not applied): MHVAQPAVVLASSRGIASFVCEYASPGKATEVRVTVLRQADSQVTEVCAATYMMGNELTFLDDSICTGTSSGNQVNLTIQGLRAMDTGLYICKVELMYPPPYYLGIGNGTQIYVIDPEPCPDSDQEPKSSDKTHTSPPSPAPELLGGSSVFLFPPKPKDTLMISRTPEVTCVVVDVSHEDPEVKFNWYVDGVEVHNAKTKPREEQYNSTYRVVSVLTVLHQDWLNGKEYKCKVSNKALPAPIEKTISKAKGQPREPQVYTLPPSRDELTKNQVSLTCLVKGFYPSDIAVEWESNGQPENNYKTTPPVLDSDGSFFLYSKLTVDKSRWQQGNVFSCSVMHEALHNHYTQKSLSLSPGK
T1 sequence (P16410 with tags, fused parts or gaps limits assumed, stated change not applied): as above

SMILES | fluorescence intensity ratio of rIgG ([1]; 1% (w/v) RapiGest SF [~24 mM], suggests only partial denaturation) | interference in LC-FLR-MS data of RapiFluor-MS labeled N-glycans [2] | denaturing power (in words) [1] | extent of PNGase F deglycosylation of abatacept after denaturation [3] | fluorescence intensity ratio of rIgG ([1]; 8M guanidine, room temperature, native state rIgG approximately 1.3)
CCCCCCCCCCCC1(C)OCC(COCCCS(=O)(=O)[O-])O1.[Na+] (stereo not drawn) [RapiGest SF] | approximately 1.4 |  |  |  | 
CN(C)C(=N)N(C)C [Reagent 1, 1,1,3,3-tetramethylguanidine] |  | no significant interferences | significantly reduced | as extensively deglycosylated as the guanidinium hydrochloride denatured controls | 
C1CN=C2NCCCN2C1 [Reagent 3, 1,5,7-triazabicyclo[4.4.0]dec-5-ene] |  |  | significantly reduced | as extensively deglycosylated as the guanidinium hydrochloride denatured controls | 
N=C(N)N [guanidine, guanidine hydrochloride, reference compound] |  |  |  |  | approximately 1.6
CN(C)C(=NC(C)(C)C)N(C)C [Reagent 2, 2-tert-butyl-1,1,3,3-tetramethylguanidine] |  |  | significantly reduced | as extensively deglycosylated as the guanidinium hydrochloride denatured controls | 
